Experimental findings from US9884851B2, “Heterocycle-bisamide inhibitors of scavenger receptor BI” (THE BROAD INSTITUTE, INC., priority 2012, dated 2018) are described below.

Data set [1] is described as follows: Cell cytotoxicity assay (CellTiter-Glo). The note with it: Chinese hamster, ldlA[mSR-BI] cells. Here is the method:
It is possible that a compound will cause cells to decrease HDL-mediated DiI uptake due to nonspecific consequences of cellular toxicity, representing a second class of false positive hits. The cells were treated with compounds for 3 hours or 24 hours, and then cell viability was measured using the CellTiter-Glo Assay (Promega), a luciferase-based reagent that measures cellular ATP levels. The compounds were tested at different concentrations to determine IC50 values. […] Data were normalized against DMSO and the positive control (1 μM BLT-1) in Genedata Assay Analyzer.
All available dry powder samples of the remaining, non-quenching compounds were procured from commercial sources and purities were determined. The compounds obtained were then retested in the primary assay and in cytotoxicity assays. We wanted to rule out any compounds that were cytotoxic, especially in the 3-hour time span of the primary DiI-HDL uptake assay. Therefore, compounds were tested in ldl[mSR-BI] cells for cytotoxicity at 3 hours and 24 hours using the CellTiter-Glo assay (Promega) that measures cellular ATP as a marker of cell viability. […] Compounds were screened for inhibition of endocytosis using labeled transferrin, which is known to bind the transferrin receptor, enter cells by clathrin-mediated endocytosis, and move to endosomes before being recycled to the cell surface.
A general note: ATP-based viability assays read luminescence as a measure of living cells.

The next data set has as its system ldlA7 cells. Nature of the data set: DiI-HDL uptake assay in the absence of SR-BI (ldlA7 counterscreen). The class given is cell-based, Chinese hamster. The note with it: Cricetulus griseus; parental cells not overexpressing SR-BI. Here is the method:
DiI-HDL Uptake Assay in the Absence of SR-BI (SA 7: AID No. 588825)
In the primary assay, the cell line used to measure DiI-HDL uptake lacks the LDL receptor and overexpresses SR-BI. […] As in the primary assay, 10 μg protein/ml of DiI-HDL was used to measure DiI uptake into the cells after 3 hours of incubation with different concentrations of compound.
In general terms: Counterscreens check selectivity or assay interference.

The test system of data set [2] is endocytosis of transferrin. Kind of data set: Transferrin endocytosis assay. The class given is cell-based, Chinese hamster. The conditions noted are these: concentrations up to 35 μM. The source says:
Transferrin Endocytosis Assay (SA 3: AID No. 602134)
This assay measures the endocytosis of an independent ligand, transferrin, which is not taken up via SR-BI but by clathrin-mediated endocytosis; thus providing a measure of the selectivity of the inhibitors. Alexa-594-labeled transferrin is taken into the cell via endocytosis and localization of labeled transferrin can be quantitated in the various intracellular compartments. […] Inhibitors of interest should act selectively at SR-BI and should have no activity in this assay.
Cells were pre-treated with compound for 3 hours and then treated with the Alexa-594 transferrin reagent for 30 minutes (Catalog No. T-13343; Invitrogen) in serum-free media. Plates of cells were then placed onto ice, washed with ice cold PBS, and then fixed with 4% paraformaldehyde. In addition, the nuclei were stained with 300 nM 4′,6-diamidino-2-phenylindole (DAPI) (Catalog No. 21490; Invitrogen). The cells were imaged with the Molecular Devices IXM microscope. Translocation measurements were performed using MetaExpress software and normalized for cell number.

Another data set is described as follows: Stability to GSH. The class given is physicochemical. The source says:
Probe 2 (ML279) can potentially act as an electrophile under biological conditions, with its tetrazole alpha to the western amide.

Data set [3] deals with T1, SR-BI (Mus musculus, UniProt Q61009).
T1 sequence (Q61009 1-509): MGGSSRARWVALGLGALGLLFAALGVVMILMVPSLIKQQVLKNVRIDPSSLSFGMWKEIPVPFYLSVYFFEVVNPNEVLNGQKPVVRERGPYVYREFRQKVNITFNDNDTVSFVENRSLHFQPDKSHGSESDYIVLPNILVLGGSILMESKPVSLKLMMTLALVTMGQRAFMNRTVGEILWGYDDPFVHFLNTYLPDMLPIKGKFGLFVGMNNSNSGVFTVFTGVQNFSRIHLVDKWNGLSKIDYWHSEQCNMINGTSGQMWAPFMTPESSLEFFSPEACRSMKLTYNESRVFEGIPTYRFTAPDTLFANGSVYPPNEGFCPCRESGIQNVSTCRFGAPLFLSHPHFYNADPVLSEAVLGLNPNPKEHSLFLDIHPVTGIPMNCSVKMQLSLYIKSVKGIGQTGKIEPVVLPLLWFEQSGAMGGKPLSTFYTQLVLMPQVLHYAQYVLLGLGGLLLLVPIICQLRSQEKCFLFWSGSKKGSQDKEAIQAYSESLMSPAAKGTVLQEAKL
Kind of data set: HDL binding assay (Alexa 488 HDL). Further details: expressed in transfected cells; host or cells: ldlA[mSR-BI], Chinese hamster ovary (CHO) cells lacking LDL receptor (Krieger Laboratory). The class given is cell-based, murine. Here is the method:
HDL binding was assessed using Alexa Fluor 488-labeled HDL particles. For this assay, the Alexa 488 dye was directly covalently bound to apolipoprotein components of the HDL particle via primary amines; thus, no transfer of the fluorophore to cell membranes occurs. Instead, direct binding of the HDL particles to SR-BI can be measured. As a positive control, BLT-1, which is known to increase binding, was used at 1 μM. It is possible that a compound can reduce binding of HDL to the receptor, and this would lead to a decrease in signal. This assay is used to characterize the mechanism of action of a particular compound; therefore, any outcome in the assay is acceptable. Data were normalized against DMSO and the positive control (1 μM BLT-1) in Genedata Assay Analyzer.

Data set [4] addresses T1, SR-BI. Nature of the data set: Radioactive HDL uptake assay (wild type SR-BI). Set-up: expressed in transfected cells; host or cells: ldlA[mSR-BI], Chinese hamster ovary (CHO) cells lacking LDL receptor (Krieger Laboratory). The class given is cell-based, murine. The note with it: [3H]cholesteryl ester HDL; read-out: IC50 in nonfluorescent, radiolabeled version of the uptake assay. From the text: Radioactive HDL Uptake Assay (Wild Type SR-BI) (SA 8: AID No. 588836)
The goal of this assay was to verify compounds that disrupt the lipid uptake from HDL particles to SR-BI scavenger receptor-expressing cells using an alternative means of labeling HDL-particles and avoiding any type of fluorescence measurement. To measure this binding event, HDL particles are labeled with [^3H]cholesteryl ester and added to mSR-BI expressing cells. Cells take up the radioactive lipids from HDL via SR-BI in 2 to 3 hours. After significant uptake of the lipids from HDL, the radiolabel can be detected by liquid scintillation counting. The level of radioactivity correlates with the amount of HDL lipid uptake. The uptake of lipid from the HDL particles can be inhibited by the compound BLT-1 or when co-treated with an excess of unlabeled HDL. The mSR-BI expressing cells utilized in the assay are a Chinese hamster ovary (CHO) cell line lacking expression of the LDL receptors and overexpressing the scavenger receptor, SR-BI. Inhibitors of SR-BI and HDL lipid uptake will have a reduction in liquid scintillation counts.

“Also recorded” adds a separate entry of the source.

On to `C[C@H](C(=O)NC1CCCC1)N(C(=O)Cn1nnc(-c2ccc3c(c2)OCO3)n1)C1CCCCC1` [ML279, (R)-2-(2-(5-(Benzo[d][1,3]dioxol-5-yl)-2H-tetrazol-2-yl)-N-cyclohexylacetamido)-N-cyclopentylpropanamide], for which the EC50 (in general, the concentration at which the effect is half-maximal) at 24 h in data set [1] is above 35000 nM. Further, in data set [1], the IC50 (usually the midpoint of a concentration-inhibition curve) at 24 h is above 35000 nM. In addition, the IC50 with ldlA7 cells is above 35000 nM; on SR-BI [4] it was 1000 nM. The figures for the “endocytosis of transferrin (in words)” value in data set [2] and in data set [2] (listed as compound of Formula (II)) were “does not inhibit endocytosis of transferrin; also recorded: not grossly perturbing cellular membrane trafficking pathways; also recorded: no effect on the endocytosis of transferrin” and “does not inhibit endocytosis of transferrin”, respectively. For the same compound, the “stability to GSH (in words)” value in the data set “Stability to GSH” is given as “stable to GSH”. In addition, the AC50 (in general, the concentration giving half of the maximal activity seen) at SR-BI [3] (Alexa Fluor 488-labeled HDL) worked out at 270 nM. For the same compound, on SR-BI [3] (Alexa-488 labeled HDL), the “effect on binding of HDL to SR-BI (in words)” value is given as “increases binding of HDL to the receptor”.
